Assay results reported in US11274100B2, “EP300/CREBBP inhibitor” (Daiichi Sankyo Company, Limited, priority 2017, dated 2022).

Assays:
EP300 = EP300 (Homo sapiens, UniProt Q09472); experiment: Histone acetyltransferase inhibitory activity against EP300 (Test Example 1); assay type: biochemical; settings: 50 ng/mL EP300, 2 μM Acetyl-CoA, 100 nM Histone H4(1-25)-GSGSK (Biotin), 28° C. for 1 hour
Protocol: (§1) [Test Example 1] Evaluation of Histone
(§2) Acetyltransferase Inhibitory Activity against EP300 and CREBBP
(§3) 10 μL each of reaction solutions each containing a different concentration of the compound of each of Examples 1 to 108b (50 mM Tris-HCl (pH8.0), 0.1 mM EDTA, 1 mM dithiothreitol, 0.01% Tween-20, 0.01% Bovine serum albumin, 330 nM trichostatin A, 2 μM Acetyl-CoA (Sigma-Aldrich, #A2056), 100 nM Histone H4(1-25)-GSGSK (Biotin) (Anaspec, #65242-1), 1% dimethyl sulfoxide, 10 to 0.0006 μM of each compound, 50 ng/mL EP300 or 125 ng/mL CREBBP) was added to respective wells of a 384-well plate, and cultured at 28° C. for 1 hour. Thereafter, 5 μL of 30 μM Lys-CoA (Daiichi Sankyo Co., Ltd.) dissolved in LANCE detection buffer (Perkin Elmer Co., Ltd., #CR97-100) was added to each well. Furthermore, 5 μL of LANCE detection buffer containing 2 nM Eu-anti pan-Ac (Perkin Elmer Co., Ltd., #TRF0412) and 50 nM Sta-Ulight (Perkin Elmer Co., Ltd., #TRF0102) was added to each well, and the resultant was cultured at room temperature overnight. EnVision (Perkin Elmer Co., Ltd., Model 2104-0020) was used to measure ULight signals. […] EP300 and CREBBP were produced and purified by Daiichi Sankyo RD Novare Co., Ltd.

H3K27Ac = experiment: Intracellular H3K27Ac inhibitory activity in LK2 cells (Test Example 2); assay type: cell-based; settings: Homo sapiens, LK-2, cultured with compound for 3 hours, read-out: Test Example 2 H3K27Ac Inhibition (LK2) IC50
Protocol: [Test Example 2] Evaluation of Intracellular H3K27Ac Inhibitory Activity
LK2 cells derived from human squamous cell lung cancer were seeded in a 96 well plate at 40000 cells/100 μL/well, and were cultured overnight at 37° C. in 5% CO2. The LK2 cells were purchased from Human Science Research Resources Bank. […] The supernatant was discarded, 4% paraformaldehyde was added thereto at 100 μL/well, and the resultant was allowed to stand still at room temperature for 15 minutes. The 4% paraformaldehyde was discarded, and the resultant was washed with PBS-T. A quenching buffer (PBS-T containing 1% H2O2) was added thereto at of 100 μL/well, and the resultant was allowed to stand still at room temperature for 10 minutes. The resultant was washed with PBS-T, a blocking buffer (StartingBlocK T20 (TBS) Blocking Buffer (Thermo […], #37543)) was added thereto at 200 μL/well, and the resultant was allowed to stand still at room temperature for 1 hour. The supernatant was discarded, Acetyl-Histone H3 (Lys27) (D5E4) XP (registered trademark) Rabbit mAb (cell Signaling, #8173) diluted with a blocking buffer was added thereto at 50 μL/well, and the resultant was allowed to stand still at 4° C. overnight. The resultant was washed with PBS-T, Anti-Rabbit IgG-HRP (Cell Signaling, #7074S) diluted with a blocking buffer was added thereto at 50 μL/well, and the resultant was cultured at room temperature for 1 hour. The resultant was washed with PBS-T, SuperSignal (registered trademark) ELISA Pico Chemiluminescent Substrate (Thermo […], #37069) was added thereto at 50 μL/well, and a signal was measured using EnVision.

CREBBP = CREBBP (Homo sapiens, UniProt Q92793); experiment: Histone acetyltransferase inhibitory activity against CREBBP (Test Example 1); assay type: biochemical; settings: 125 ng/mL CREBBP, 2 μM Acetyl-CoA, 100 nM Histone H4(1-25)-GSGSK (Biotin), 28° C. for 1 hour
Protocol: as §1, §2, §3

Sequence of CREBBP (Q92793 whole entry): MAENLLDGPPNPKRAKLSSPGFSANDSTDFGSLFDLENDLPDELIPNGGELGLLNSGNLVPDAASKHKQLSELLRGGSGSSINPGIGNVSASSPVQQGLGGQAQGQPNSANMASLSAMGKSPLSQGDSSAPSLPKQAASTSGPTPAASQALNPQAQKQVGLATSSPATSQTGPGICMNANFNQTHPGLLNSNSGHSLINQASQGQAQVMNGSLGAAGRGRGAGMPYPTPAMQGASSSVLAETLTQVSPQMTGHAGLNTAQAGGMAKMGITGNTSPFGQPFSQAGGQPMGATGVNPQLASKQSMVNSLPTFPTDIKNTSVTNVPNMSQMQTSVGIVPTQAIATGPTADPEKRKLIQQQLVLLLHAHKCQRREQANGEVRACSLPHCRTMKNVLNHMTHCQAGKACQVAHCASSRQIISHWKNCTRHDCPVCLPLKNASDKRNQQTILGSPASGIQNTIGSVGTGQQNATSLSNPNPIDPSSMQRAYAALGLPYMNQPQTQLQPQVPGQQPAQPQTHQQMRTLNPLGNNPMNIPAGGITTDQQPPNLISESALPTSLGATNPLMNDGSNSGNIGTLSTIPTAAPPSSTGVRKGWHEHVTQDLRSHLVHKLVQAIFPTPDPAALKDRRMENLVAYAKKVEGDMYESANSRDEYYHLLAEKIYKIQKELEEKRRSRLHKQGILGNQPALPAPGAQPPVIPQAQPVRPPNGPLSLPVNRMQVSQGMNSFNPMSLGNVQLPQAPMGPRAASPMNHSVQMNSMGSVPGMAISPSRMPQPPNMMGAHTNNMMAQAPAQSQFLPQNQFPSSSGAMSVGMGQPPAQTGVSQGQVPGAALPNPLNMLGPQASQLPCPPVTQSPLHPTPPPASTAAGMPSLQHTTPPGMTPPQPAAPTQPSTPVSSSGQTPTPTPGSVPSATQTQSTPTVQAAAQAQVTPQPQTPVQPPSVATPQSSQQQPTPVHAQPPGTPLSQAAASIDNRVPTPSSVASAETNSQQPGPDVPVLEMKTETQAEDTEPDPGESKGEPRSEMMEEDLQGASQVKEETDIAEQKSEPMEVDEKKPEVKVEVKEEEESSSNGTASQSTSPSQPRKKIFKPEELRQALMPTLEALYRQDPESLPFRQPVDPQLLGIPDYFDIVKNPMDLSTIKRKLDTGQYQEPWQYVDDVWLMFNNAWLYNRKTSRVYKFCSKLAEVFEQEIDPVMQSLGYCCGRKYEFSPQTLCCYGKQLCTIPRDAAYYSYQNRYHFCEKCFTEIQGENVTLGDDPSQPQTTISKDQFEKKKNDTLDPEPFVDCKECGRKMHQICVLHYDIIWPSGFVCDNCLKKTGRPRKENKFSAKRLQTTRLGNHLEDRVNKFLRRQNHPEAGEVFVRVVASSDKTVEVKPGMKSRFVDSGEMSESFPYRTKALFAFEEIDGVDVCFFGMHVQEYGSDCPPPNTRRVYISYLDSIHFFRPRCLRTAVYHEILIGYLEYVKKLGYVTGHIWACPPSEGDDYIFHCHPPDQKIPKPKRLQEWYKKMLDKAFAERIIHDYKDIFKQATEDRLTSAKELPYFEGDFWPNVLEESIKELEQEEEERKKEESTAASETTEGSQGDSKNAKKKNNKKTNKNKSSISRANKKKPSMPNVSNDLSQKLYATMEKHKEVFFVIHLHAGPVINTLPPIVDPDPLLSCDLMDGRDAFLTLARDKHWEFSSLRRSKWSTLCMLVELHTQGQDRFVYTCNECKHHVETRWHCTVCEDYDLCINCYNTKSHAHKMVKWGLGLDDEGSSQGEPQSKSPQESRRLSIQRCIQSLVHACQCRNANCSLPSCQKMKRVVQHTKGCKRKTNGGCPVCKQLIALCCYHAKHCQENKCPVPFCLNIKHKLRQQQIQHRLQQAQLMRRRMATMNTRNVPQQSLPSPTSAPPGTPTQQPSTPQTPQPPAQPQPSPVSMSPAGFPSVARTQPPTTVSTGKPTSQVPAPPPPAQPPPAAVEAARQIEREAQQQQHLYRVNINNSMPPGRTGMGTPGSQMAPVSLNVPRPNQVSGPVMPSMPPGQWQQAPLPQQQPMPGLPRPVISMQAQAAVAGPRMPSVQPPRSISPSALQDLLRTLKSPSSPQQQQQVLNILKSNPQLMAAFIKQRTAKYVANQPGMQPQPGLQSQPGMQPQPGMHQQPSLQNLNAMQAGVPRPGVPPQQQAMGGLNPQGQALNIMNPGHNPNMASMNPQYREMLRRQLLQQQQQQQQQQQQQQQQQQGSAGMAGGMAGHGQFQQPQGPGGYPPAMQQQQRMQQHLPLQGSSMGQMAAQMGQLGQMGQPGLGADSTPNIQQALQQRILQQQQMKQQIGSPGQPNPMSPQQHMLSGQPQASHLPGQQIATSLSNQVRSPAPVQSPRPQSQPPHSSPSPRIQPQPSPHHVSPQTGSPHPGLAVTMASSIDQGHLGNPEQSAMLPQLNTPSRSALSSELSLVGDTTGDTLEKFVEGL
Sequence of EP300 (Q09472 whole entry): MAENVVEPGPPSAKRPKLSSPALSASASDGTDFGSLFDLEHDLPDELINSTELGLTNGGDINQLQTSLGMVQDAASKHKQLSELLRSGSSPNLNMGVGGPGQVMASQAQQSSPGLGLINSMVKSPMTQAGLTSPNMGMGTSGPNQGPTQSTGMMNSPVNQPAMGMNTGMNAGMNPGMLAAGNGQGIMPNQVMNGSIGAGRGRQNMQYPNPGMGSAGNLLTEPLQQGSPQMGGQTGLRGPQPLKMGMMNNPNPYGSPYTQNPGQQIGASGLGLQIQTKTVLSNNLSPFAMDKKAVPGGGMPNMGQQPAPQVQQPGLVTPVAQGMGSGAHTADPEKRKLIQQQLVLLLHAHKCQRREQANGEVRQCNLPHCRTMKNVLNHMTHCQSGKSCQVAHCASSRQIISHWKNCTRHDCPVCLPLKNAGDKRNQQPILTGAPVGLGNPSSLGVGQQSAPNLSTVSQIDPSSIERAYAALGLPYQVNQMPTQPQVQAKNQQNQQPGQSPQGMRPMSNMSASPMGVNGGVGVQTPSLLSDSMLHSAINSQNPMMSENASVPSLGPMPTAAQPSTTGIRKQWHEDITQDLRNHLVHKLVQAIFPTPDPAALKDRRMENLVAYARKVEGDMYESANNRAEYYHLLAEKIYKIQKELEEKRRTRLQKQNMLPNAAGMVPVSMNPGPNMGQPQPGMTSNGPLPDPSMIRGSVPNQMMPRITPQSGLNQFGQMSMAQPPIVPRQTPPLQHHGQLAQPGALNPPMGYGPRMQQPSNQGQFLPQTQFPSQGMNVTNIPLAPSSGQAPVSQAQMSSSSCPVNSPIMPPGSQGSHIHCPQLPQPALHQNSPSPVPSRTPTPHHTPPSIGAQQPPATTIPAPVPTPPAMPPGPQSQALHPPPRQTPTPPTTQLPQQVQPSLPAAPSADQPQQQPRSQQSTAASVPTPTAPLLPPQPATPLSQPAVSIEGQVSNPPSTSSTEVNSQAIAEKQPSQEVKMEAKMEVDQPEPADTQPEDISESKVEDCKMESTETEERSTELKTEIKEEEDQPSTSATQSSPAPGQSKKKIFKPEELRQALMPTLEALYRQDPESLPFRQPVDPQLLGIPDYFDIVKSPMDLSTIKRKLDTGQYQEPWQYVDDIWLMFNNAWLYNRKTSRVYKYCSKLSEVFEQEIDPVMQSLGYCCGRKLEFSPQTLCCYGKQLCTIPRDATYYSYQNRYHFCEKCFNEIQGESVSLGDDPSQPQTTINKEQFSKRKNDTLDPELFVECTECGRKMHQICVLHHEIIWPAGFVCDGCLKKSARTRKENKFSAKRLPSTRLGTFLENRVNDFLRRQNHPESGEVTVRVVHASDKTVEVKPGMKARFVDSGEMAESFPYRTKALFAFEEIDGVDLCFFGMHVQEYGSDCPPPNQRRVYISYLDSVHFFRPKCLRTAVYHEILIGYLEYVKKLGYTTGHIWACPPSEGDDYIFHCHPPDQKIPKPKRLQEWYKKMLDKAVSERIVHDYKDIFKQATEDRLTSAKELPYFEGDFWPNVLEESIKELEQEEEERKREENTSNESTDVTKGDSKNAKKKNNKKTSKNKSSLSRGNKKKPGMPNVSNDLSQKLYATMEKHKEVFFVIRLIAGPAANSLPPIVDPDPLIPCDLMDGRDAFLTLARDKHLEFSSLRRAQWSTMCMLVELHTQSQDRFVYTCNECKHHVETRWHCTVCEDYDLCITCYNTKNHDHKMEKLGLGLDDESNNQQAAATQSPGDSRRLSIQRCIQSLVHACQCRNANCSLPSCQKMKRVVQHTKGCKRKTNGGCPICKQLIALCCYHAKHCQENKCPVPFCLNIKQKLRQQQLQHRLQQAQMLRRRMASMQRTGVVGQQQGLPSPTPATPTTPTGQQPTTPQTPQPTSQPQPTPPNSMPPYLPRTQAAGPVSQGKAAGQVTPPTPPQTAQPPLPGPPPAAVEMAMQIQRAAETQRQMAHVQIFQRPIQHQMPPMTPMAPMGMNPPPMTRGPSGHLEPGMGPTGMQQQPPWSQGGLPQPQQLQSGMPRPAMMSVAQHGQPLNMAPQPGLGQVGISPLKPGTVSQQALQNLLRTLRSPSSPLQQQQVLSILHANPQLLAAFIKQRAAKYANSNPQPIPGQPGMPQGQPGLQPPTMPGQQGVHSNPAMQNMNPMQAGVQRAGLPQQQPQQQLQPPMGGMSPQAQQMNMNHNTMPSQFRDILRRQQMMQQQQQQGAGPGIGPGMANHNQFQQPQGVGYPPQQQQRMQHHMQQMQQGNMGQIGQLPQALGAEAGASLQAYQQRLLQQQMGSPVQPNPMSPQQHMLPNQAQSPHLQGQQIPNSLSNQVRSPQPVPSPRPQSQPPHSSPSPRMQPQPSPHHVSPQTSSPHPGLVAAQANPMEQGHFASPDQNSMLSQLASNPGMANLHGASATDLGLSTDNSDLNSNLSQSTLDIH

| IC50 (EP300) [nM] | IC50 (H3K27Ac) [nM] | IC50 (CREBBP) [nM] | SMILES |
| --- | --- | --- | --- |
| – | 10600 | – | COc1ccc(C2(C(=O)N3CCCC3C(=O)Nc3cccc4c3cnn4C)CCCCC2)cc1 (stereo not drawn) [Example 3, 1-{[1-(4-Methoxyphenyl)cyclohexyl]carbonyl}-N-(1-methyl-1H-indazol-4-yl)prolinamide] |
| – | 6530 | – | COc1ccc(C2(C(=O)N3CCC[C@@H]3C(=O)Nc3ccccc3)CCCC2)cc1 [Example 8, 1-{[1-(4-Methoxyphenyl)cyclopentyl]carbonyl}-N-phenyl-D-prolinamide] |
| – | 8450 | – | COc1ccc(C2(C(=O)N3CCC[C@@H]3C(=O)Nc3cccc(C)c3)CCCC2)cc1 [Example 9, 1-{[1-(4-Methoxyphenyl)cyclopentyl]carbonyl}-N-(3-methylphenyl)-D-prolinamide] |
| – | 6110 | – | COc1ccc(C2(C(=O)N3CCC[C@@H]3C(=O)Nc3ccccc3OC)CCCC2)cc1 [Example 10, N-(2-Methoxyphenyl)-1-{[1-(4-methoxyphenyl)cyclopentyl]carbonyl}-D-prolinamide] |
| – | 8060 | – | COc1ccc(C2(C(=O)N3CCC[C@@H]3C(=O)Nc3ccncc3)CCCC2)cc1 [Example 11, 1-{[1-(4-Methoxyphenyl)cyclopentyl]carbonyl}-N-pyridin-4-yl-D-prolinamide] |
| – | 3990 | – | COc1ccc(C2(C(=O)N3CCC[C@@H]3C(=O)Nc3cccc4ccccc34)CCCC2)cc1 [Example 13, 1-{[1-(4-Methoxyphenyl)cyclopentyl]carbonyl}-N-naphthalen-1-yl-D-prolinamide] |
| – | 6670 | – | COc1ccc(C2(C(=O)N3CCC[C@@H]3C(=O)Nc3cccc4cccnc34)CCCC2)cc1 [Example 14, 1-{[1-(4-Methoxyphenyl)cyclopentyl]carbonyl}-N-quinolin-8-yl-D-prolinamide] |
| 218 | 908 | 353 | COc1ccc(C2(C(=O)N3CCC[C@@H]3C(=O)Nc3cccc(N)n3)CCCC2)cc1 [Example 15, N-(6-Aminopyridin-2-yl)-1-{[1-(4-methoxyphenyl)cyclopentyl]carbonyl}-D-prolinamide] |
| 61 | 304 | 95 | COc1ccc(C2(C(=O)N3CCC[C@@H]3C(=O)Nc3cccc4[nH]ccc34)CCCC2)cc1 [Example 16, N-1H-Indol-4-yl-1-{[1-(4-methoxyphenyl)cyclopentyl]carbonyl}-D-prolinamide] |
| 213 | 709 | 237 | COc1ccc(C2(C(=O)N3CCC[C@@H]3C(=O)Nc3ccc4[nH]ccc4c3)CCCC2)cc1 [Example 17, N-1H-Indol-5-yl-1-{[1-(4-methoxyphenyl)cyclopentyl]carbonyl}-D-prolinamide] |
| – | 7720 | – | COc1ccc(C2(C(=O)N3CCC[C@@H]3C(=O)Nc3ncccn3)CCCC2)cc1 [Example 20, 1-{[1-(4-Methoxyphenyl)cyclopentyl]carbonyl}-N-pyrimidin-2-yl-D-prolinamide] |
| 130 | 458 | 36 | COc1ccc(C2(C(=O)N3CCC[C@@H]3C(=O)Nc3ccc(O)c(Cl)c3)CCCC2)cc1 [Example 21, N-(3-Chloro-4-hydroxy-phenyl)-1-{[1-(4-methoxyphenyl)cyclopentyl]carbonyl}-D-prolinamide] |
| – | 2530 | – | COc1ccc(C2(C(=O)N3CCCCC[C@@H]3C(=O)Nc3ccccc3C#N)CCCC2)cc1 [Example 27, (2R)—N-(2-Cyanophenyl)-1-{[1-(4-methoxyphenyl)cyclopentyl]carbonyl}azepan-2-carboxamide] |
| – | 2500 | – | COc1ccc(C2(C(=O)N3CCC[C@@H]3C(=O)Nc3cccc4[nH]cnc34)CCCC2)cc1 [Example 59] |

More lines, now with the values behind:

| SMILES | IC50 (EP300) [nM] | IC50 (H3K27Ac) [nM] | IC50 (CREBBP) [nM] |
| --- | --- | --- | --- |
| COc1ccc(C2(C(=O)N(C)CC(=O)Nc3cccc4[nH]ncc34)CCCCC2)cc1 [Example 2, N-[2-(1H-Indazol-4-ylamino)-2-oxoethyl]-1-(4-methoxyphenyl)-N-methylcyclohexanecarboxamide] | 193 | 1010 | 128 |
| O=C(O)c1ccc(C2(C(=O)N3CCC[C@@H]3C(=O)Nc3cccc4[nH]ncc34)CCCC2)cc1 [Example 4, 4-(1-{[(2R)-2-(1H-Indazol-4-ylcarbamoyl)pyrrolidin-1-yl]carbonyl}cyclopentyl)benzoic acid] | – | 11700 | – |
| COc1ccc(C2(C(=O)N3C[C@H](O)C[C@@H]3C(=O)Nc3cccc4[nH]ncc34)CCCC2)cc1 [Example 5, (4R)-4-Hydroxy-N-1H-indazol-4-yl-1-{[1-(4-methoxyphenyl)cyclopentyl]carbonyl}-D-prolinamide] | 259 | 1030 | 334 |
| COc1ccc(C2(C(=O)N3C[C@H](OC)C[C@@H]3C(=O)Nc3cccc4[nH]ncc34)CCCC2)cc1 [Example 6, (4R)—N-1H-Indazol-4-yl-4-methoxy-1-{[1-(4-methoxyphenyl)cyclopentyl]carbonyl}-D-prolinamide] | – | 9640 | – |
| COc1ccc(C2(C(=O)N3C[C@@H](F)C[C@@H]3C(=O)Nc3cccc4[nH]ncc34)CCCC2)cc1 [Example 7, (4S)-4-Fluoro-N-1H-indazol-4-yl-1-{[1-(4-methoxyphenyl)cyclopentyl]carbonyl}-D-prolinamide] | – | 8750 | – |
| COc1ccc(C2(C(=O)N3CCC[C@@H]3C(=O)Nc3ccc(OCc4ccccc4)cc3)CCCC2)cc1 [Example 12, N-[4-(Benzyloxy)phenyl]-1-{[1-(4-methoxyphenyl)cyclopentyl]carbonyl}-D-prolinamide] | – | 2580 | – |
| COc1ccc(C2(C(=O)N3CCC[C@@H]3C(=O)Nc3ccc4c(c3)CCC(=O)N4)CCCC2)cc1 [Example 18, l-{[1-(4-Methoxyphenyl)cyclopentyl]carbonyl}-N-(2-oxo-1,2,3,4-tetrahydroquinolin-6-yl)-D-prolinamide] | – | 3340 | – |
| COc1ccc(C2(C(=O)N3CCC[C@@H]3C(=O)Nc3ccc4[nH]c(=O)[nH]c4c3)CCCC2)cc1 [Example 19, l-{[1-(4-Methoxyphenyl)cyclopentyl]carbonyl}-N-(2-oxo-2,3-dihydro-1H-benzimidazol-5-yl)-D-prolinamide] | 171 | 1050 | 169 |
| COc1ccc(C2(C(=O)N3[C@H](C)CC[C@@H]3C(=O)Nc3cccc4[nH]ncc34)CCCC2)cc1 [Example 25, (5R)—N-1H-Indazol-4-yl-1-{[1-(4-methoxyphenyl)cyclopentyl]carbonyl}-5-methyl-D-prolinamide] | – | 5320 | – |
| COc1ccc(C2(C(=O)N3C[S+]([O-])C[C@@H]3C(=O)Nc3cccc4[nH]ncc34)CCCC2)cc1 (stereo partly drawn) [Example 28b, (4S)—N-(1H-Indazol-4-yl)-3-{[1-(4-methoxyphenyl)cyclopentyl]carbonyl}-1,3-thiazolidin-4-carboxamide 1-oxide] | – | 6880 | – |
| C#C[C@@]1(O)C[C@H](C(=O)Nc2ccccc2Cl)N(C(=O)C2(c3ccc(OC)cc3)CCCC2)C1 [Example 32, (4S)—N-(2-Chlorophenyl)-4-ethynyl-4-hydroxy-1-{[1-(4-methoxyphenyl)cyclopentyl]carbonyl}-D-prolinamide] | – | 1650 | – |
| COc1ccc(C2(C(=O)N3C[C@H](F)C[C@@H]3C(=O)Nc3cccc4[nH]ncc34)CCCOC2)cc1 (stereo partly drawn) [Example 42, (4R)-4-Fluoro-N-1H-indazol-4-yl-1-{[3-(4-methoxyphenyl)tetrahydro-2H-pyran-3-yl]carbonyl}-D-prolinamide] | – | 4010 | – |
| COc1ccc(C2(C(=O)N3C[C@H](F)C[C@@H]3C(=O)Nc3cccc4[nH]ncc34)CCCCO2)cc1 (stereo partly drawn) [Example 43, (4R)-4-Fluoro-N-1H-indazol-4-yl-1-{[2-(4-methoxyphenyl)tetrahydro-2H-pyran-2-yl]carbonyl}-D-prolinamide] | – | 6450 | – |
| COc1ccc(C2(C(=O)N3CCC[C@@H]3C(=O)Nc3cccc4[nH]ncc34)CCC(F)(F)CC2)cc1 [Example 55] | – | 2020 | – |
